Assay results from patent US20060062758A1, “Tight junction modulator peptide PN159 for enhanced mucosal delivery of therapeutic compounds” (Nastech Pharmaceutical Comapny Inc., priority 2004, published 2006).

Tests used:
[1] = system: EpiAirway™ Cell Membrane (mucosal epithelial cell layer); experiment: Permeation kinetics across the in vitro epithelial tissue model; conditions: for Perm(x)/Perm(159) +/− SEM*: mean values from multiple repeats; for PTH1-34 permeation: 2 mg/ml PTH, pH 4.5
Procedure: The EpiAirway™ system was developed by MatTek Corp (Ashland, Mass.) as a model of the pseudostratified epithelium lining the respiratory tract. The epithelial cells are grown on porous membrane-bottomed cell culture inserts at an air-liquid interface, which results in differentiation of the cells to a highly polarized morphology. The apical surface is ciliated with a microvillous ultrastructure and the epithelium produces mucus (the presence of mucin has been confirmed by immunoblotting). The inserts have a diameter of 0.875 cm, providing a surface area of 0.6 cm^2. The cells are plated onto the inserts at the factory approximately three weeks before shipping. One “kit” consists of 24 units.
A. A “kit” of 24 EpiAirway™ units can routinely be employed for evaluating five different formulations, each of which is applied to quadruplicate wells. Each well is employed for determination of permeation kinetics (4 time points), transepithelial electrical resistance (TER). An additional set of wells is employed as controls, which are sham treated during determination of permeation kinetics, but are otherwise handled identically to the test sample-containing units for determinations of transepithelial resistance and viability.
B. In all experiments, the mucosal delivery formulation to be studied is applied to the apical surface of each unit in a volume of 100 μL, which is sufficient to cover the entire apical surface. An appropriate volume of the test formulation at the concentration applied to the apical surface (no more than 100 μL is generally needed) is set aside for subsequent determination of concentration of the active material by ELISA or other designated assay.
D. In order to minimize potential sources of error and avoid any formation of concentration gradients, the units are transferred from one 0.9 mL-containing well to another at each time point in the study. These transfers are made at the following time points, based on a zero time at which the 100 μL volume of test material was applied to the apical surface: 15 minutes, 30 minutes, 60 minutes, and 120 minutes.
F. At the completion of each time point, the medium is removed from the well from which each unit was transferred, and aliquotted into two tubes (one tube receives 700 μL and the other 200 μL) for determination of the concentration of permeated test material and, in the event that the test material is cytotoxic, for release of the cytosolic enzyme, lactate dehydrogenase, from the epithelium. These samples are kept in the refrigerator if the assays are to be conducted within 24 hours, or the samples are subaliquotted and kept frozen at −80° C. until thawed once for assays. Repeated freeze-thaw cycles are to be avoided.
EIA kit (p/n S-1178(EIAH6101) was purchased from Peninsula Laboratories Inc. (Division of BACHEM, San Carlos, Calif., 800-922-1516). 17×120 mm polypropylene conical tubes (p/n 352097, Falcon, Franklin Lakes, N.J.) were used for all sample preparations. Eight standards were used for PTH quantitation. The rest of the assay procedure was the same as the kit inserts.
The instant study was designed to evaluate the effect of PN159 itself or in combination with additional permeation enhancers on PTH permeation. The PN159 concentrations evaluated are 25, 50, and 100 μM. The additional permeation enhancers are 45 mg/ml M-β-CD, 1 mg/ml DDPC, and 1 mg/ml EDTA. Sorbitol was used as a tonicifier (146-190 mM) to adjust the osmolarity of formulations to 220 mOsm/kg. The formulation pH was fixed at 4.5. PTH was chosen as a model peptide in this example. 2 mg/ml PTH was combined with PN159 with or without additional permeation enhancers. The combination was tested using an in vitro epithelial tissue model to monitor PTH permeation, transepithelial electrical resistance (TER), and the cytotoxicity of the formulation by LDH assay.
The effect of PN159 on permeation of MC-4RA was evaluated in this study.

[2] = Intranasal PYY plasma pharmacokinetics in rabbits; assay type: in vivo, New Zealand White rabbits; conditions: for plasma concentration of PYY: average of 4 animals; for Relative AUC last / Relative Cmax / AUCINF, Mean / AUClast, Mean: plasma PYY; for Relative AUC last / Relative Cmax: compared with Group 2 (no enhancer) formulation
Procedure: 20 male New Zealand White rabbits age 3-6 months and weighing 2.1-3.0 kg were randomly assigned into one of 5 treatment groups with four animals per group. Test animals were dosed at 15 μl/kg and intranasally via pipette. Table 4 below indicates the composition of five different dose groups.
For dosing group 1 (see Table 1) a clinical formulation of PYY including small molecule permeation enhancers was used. The small molecule enhancers in these studies included methyl-βcyclodextrin, phosphatidylcholine didecanoyl (DDPC), and/or EDTA. Dosing group 2 received PYY dissolved in phosphate buffered saline (PBS).
Serial blood samples (about 2 ml each) were collected by direct venipuncture from a marginal ear vein into blood collection tubes containing EDTA as an anticoagulant. Blood samples were collected at 0, 2.5, 5, 10, 15, 30, 45, 60, and 120 minutes post-dosing. After collection of the blood, the tubes were gently rocked several times for anti-coagulation, and then 50 μl aprotinin solution was added. The blood was centrifuged at approximately 1,600×g for 15 minutes at approximately 4° C., and plasma samples were dispensed into duplicate aliquots and stored frozen at approximately −70° C.

[3] = intranasal PYY 205 μg/kg in PBS with 25 μM PN159 (Group 3)
[4] = intranasal PYY 205 μg/kg in PBS with 50 μM PN159 (Group 4)
[5] = intranasal PYY 205 μg/kg in PBS with 100 μM PN159 (Group 5)

What does the source list for `CC(C)C[C@H](NC(=O)[C@H](C)NC(=O)[C@H](CCCCN)NC(=O)[C@H](CC(C)C)NC(=O)[C@H](C)NC(=O)[C@H](CC(C)C)NC(=O)[C@H](CCCCN)NC(=O)[C@H](CC(C)C)NC(=O)[C@H](C)NC(=O)[C@H](CC(C)C)NC(=O)[C@@H](N)CCCCN)C(=O)N[C@@H](CCCCN)C(=O)N[C@@H](C)C(=O)N[C@@H](C)C(=O)N[C@@H](CC(C)C)C(=O)N[C@@H](CCCCN)C(=O)N[C@@H](CC(C)C)C(=O)N[C@@H](C)C(N)=O` [PN159]?
Perm(x)/Perm(159) +/− SEM* ([1]; Example 7, length changes, relative to PN159): 1.00; permeation of MC-4RA ([1]; PN159 5, 25, 50, 100 μM, 10 mg/ml MC-4RA, 45 mg/ml M-β-CD, pH 4): significantly enhance epithelial permeation; PTH1-34 permeation ([1]; PN159 25, 50, 100 μM without additional enhancers): Significant increase in PTH permeation; PTH1-34 permeation ([1]; PN159 combined with 45/1/1 mg/ml M-b-CD/DDPC/EDTA): Additional increase in PTH permeation; Perm(x)/Perm(159) +/− SEM ([1]; Table 6, D-amino acid substitutions, relative to PN159): 1.00 +/− 0.13; Perm(x)/Perm(159) +/− SEM* ([1]; Table 9, hydrophobic faces, relative to PN159): 1.00 +/− 0.13; plasma concentration of PYY ([2]; 0 min post-dosing, intranasal PYY 205 μg/kg in PBS with 25 μM PN159): 228.675; plasma concentration of PYY ([2]; 0 min post-dosing, intranasal PYY 205 μg/kg in PBS with 50 μM PN159): 424.4; plasma concentration of PYY ([2]; 0 min post-dosing, intranasal PYY 205 μg/kg in PBS with 100 μM PN159): 294.225; plasma concentration of PYY ([2]; 2.5 min post-dosing, intranasal PYY 205 μg/kg in PBS with 25 μM PN159): 526.375; plasma concentration of PYY ([2]; 2.5 min post-dosing, intranasal PYY 205 μg/kg in PBS with 50 μM PN159): 749.975; plasma concentration of PYY ([2]; 2.5 min post-dosing, intranasal PYY 205 μg/kg in PBS with 100 μM PN159): 1748.225; plasma concentration of PYY ([2]; 5 min post-dosing, intranasal PYY 205 μg/kg in PBS with 25 μM PN159): 1430.15; plasma concentration of PYY ([2]; 5 min post-dosing, intranasal PYY 205 μg/kg in PBS with 50 μM PN159): 1293.4; plasma concentration of PYY ([2]; 5 min post-dosing, intranasal PYY 205 μg/kg in PBS with 100 μM PN159): 3088.2; plasma concentration of PYY ([2]; 10 min post-dosing, intranasal PYY 205 μg/kg in PBS with 25 μM PN159): 6521.7; plasma concentration of PYY ([2]; 10 min post-dosing, intranasal PYY 205 μg/kg in PBS with 50 μM PN159): 12517.2; plasma concentration of PYY ([2]; 10 min post-dosing, intranasal PYY 205 μg/kg in PBS with 100 μM PN159): 14486.6; plasma concentration of PYY ([2]; 15 min post-dosing, intranasal PYY 205 μg/kg in PBS with 25 μM PN159): 12563.075; plasma concentration of PYY ([2]; 15 min post-dosing, intranasal PYY 205 μg/kg in PBS with 50 μM PN159): 34455.3; plasma concentration of PYY ([2]; 15 min post-dosing, intranasal PYY 205 μg/kg in PBS with 100 μM PN159): 20882.725; plasma concentration of PYY ([2]; 30 min post-dosing, intranasal PYY 205 μg/kg in PBS with 25 μM PN159): 15222.6; plasma concentration of PYY ([2]; 30 min post-dosing, intranasal PYY 205 μg/kg in PBS with 50 μM PN159): 35294.375; plasma concentration of PYY ([2]; 30 min post-dosing, intranasal PYY 205 μg/kg in PBS with 100 μM PN159): 25470.475; plasma concentration of PYY ([2]; 45 min post-dosing, intranasal PYY 205 μg/kg in PBS with 25 μM PN159): 9081.125; plasma concentration of PYY ([2]; 45 min post-dosing, intranasal PYY 205 μg/kg in PBS with 50 μM PN159): 21582.225; plasma concentration of PYY ([2]; 45 min post-dosing, intranasal PYY 205 μg/kg in PBS with 100 μM PN159): 16499.55; plasma concentration of PYY ([2]; 60 min post-dosing, intranasal PYY 205 μg/kg in PBS with 25 μM PN159): 4843.15; plasma concentration of PYY ([2]; 60 min post-dosing, intranasal PYY 205 μg/kg in PBS with 50 μM PN159): 9461.925; plasma concentration of PYY ([2]; 60 min post-dosing, intranasal PYY 205 μg/kg in PBS with 100 μM PN159): 10676.625; plasma concentration of PYY ([2]; 120 min post-dosing, intranasal PYY 205 μg/kg in PBS with 25 μM PN159): 1224.2; plasma concentration of PYY ([2]; 120 min post-dosing, intranasal PYY 205 μg/kg in PBS with 50 μM PN159): 2337.775; plasma concentration of PYY ([2]; 120 min post-dosing, intranasal PYY 205 μg/kg in PBS with 100 μM PN159): 1891.275; Relative AUC last ([2]; PN159, 25 μm (Group 3)): 21x; Relative Cmax ([2]; PN159, 25 μm (Group 3)): 30x; Relative AUC last ([2]; PN159, 50 μm (Group 4)): 46x; Relative Cmax ([2]; PN159, 50 μm (Group 4)): 79x; Relative AUC last ([2]; PN159, 100 μm (Group 5)): 38x; Relative Cmax ([2]; PN159, 100 μm (Group 5)): 54x; AUCINF, Mean [2, 3]: 796354.7 pg·min/mL; AUClast, Mean [2, 3]: 748104.1 pg·min/mL; AUCINF, Mean [2, 4]: 1787348 pg·min/mL; AUClast, Mean [2, 4]: 1692499 pg·min/mL; AUCINF, Mean [2, 5]: 1518949 pg·min/mL; AUClast, Mean [2, 5]: 1384241 pg·min/mL
